In US12049474B2, “Nucleoside prodrugs and uses related thereto” (Emory University, priority 2019, dated 2024):
Like-named read-outs stand apart in the source and are kept apart here.

Columns and labels:
CYP2D6 = CYP2D6 (Homo sapiens (Human), UniProt P10635); assay: biochemical; assay type: biochemical
Protocol: (§1) The CYP450 inhibition assays utilized microsomes from insect cells expressing human recombinant individual cDNA-expressed CYP isoforms 3A4 and 2D6, as well as the fluorogenic probe that produces fluorescent metabolite. Standard inhibitors were co-incubated with fluorogenic substrates and their inhibitory potential (IC50) was determined. Assay conditions in terms of CYP450 protein concentration and time of incubation were standardized, enzyme kinetics parameters of each fluorescent probe substrate were estimated and IC50 values of inhibitors were determined and validated on different days to check reproducibility.
(§2) A 100 mM sodium phosphate buffer was prepared and adjusted to pH 7.4. In a separate falcon tube, a 2× enzyme/substrate (E/S) solution was prepared in phosphate buffer. The final concentration of CYP2D6 (CORNING®) and […] (AMMC) was 10 nM and 4 μM, and CYP3A4 (CORNING®) and 7-benzyloxy-4-(trifluoromethyl) coumarin (BFC) was 20 nM and 40 μM, respectively. In a separate falcon tube, a 2×NADPH regenerating system (NRS) was prepared in phosphate buffer. The final concentration for each component in the assay was as follows: • CYP2D6 assay: 0.008 mM NADPH, 3.3 mM glucose 6-phosphate, 0.4 U of glucose-6-phosphate dehydrogenase per mL
(§3) Both enzymatic assays were conducted in a 96-well microtiter plate (Black, CORNING® COSTAR®) with a final volume of 100 μL. Preparation of the plate began with the addition of 74 μL of the E/S in the first well, and 50 μL to all subsequent wells (from 2-11). The test compounds (1 μL) were dissolved in the first well to give the first row a final volume of 75 μL. A 1:3 serial dilution of the test compound was conducted by removing 25 μL from the first well and diluting it with the second and so forth until the tenth row. Final concentrations yielded a range from 200 μM-0.01 μM. Well no. 11 contained no inhibitor, and well no. 12 contained no enzyme. Both were used as controls for background fluorescence. The plate was incubated for 30 min at 37° C. After incubation, the reaction was initiated by the addition of 50 μL of the 2×NRS to each well.
Immediately (within 1 min) the fluorescence was measured using a microplate reader (BIOTEK® Synergy Neo2). CYP2D6 was monitored at Ex/Em=410/460 nm, and CYP3A4 monitored at Ex/Em=410/538 nm in kinetic mode that scanned every 5 min for 60 mins. Data was exported and analyzed using Graph Pad Prism 7. […] The IC50 value was derived after the data was fitted on a 10-point curve using a four-parameter logistic regression model.

CYP3A4 = CYP3A4 (Homo sapiens (Human), UniProt P08684); assay: Fluorometric CYP450 enzyme inhibition assay, CYP3A4; assay type: biochemical
CYP3A4, sequence (P08684 whole entry): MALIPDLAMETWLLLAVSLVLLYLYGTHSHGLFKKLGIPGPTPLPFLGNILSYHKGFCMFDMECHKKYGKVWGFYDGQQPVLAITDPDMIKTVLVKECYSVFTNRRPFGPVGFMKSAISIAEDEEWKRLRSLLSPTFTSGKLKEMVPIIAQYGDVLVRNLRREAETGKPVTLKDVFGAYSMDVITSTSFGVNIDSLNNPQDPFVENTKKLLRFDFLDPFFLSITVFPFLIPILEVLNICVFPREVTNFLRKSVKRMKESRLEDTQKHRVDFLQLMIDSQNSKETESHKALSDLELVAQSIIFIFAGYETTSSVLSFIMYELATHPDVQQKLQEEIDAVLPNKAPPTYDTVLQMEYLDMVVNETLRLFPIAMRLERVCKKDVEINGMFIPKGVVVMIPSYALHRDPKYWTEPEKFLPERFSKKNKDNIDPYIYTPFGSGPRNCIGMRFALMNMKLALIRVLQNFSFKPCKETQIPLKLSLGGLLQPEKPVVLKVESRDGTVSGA
Protocol: as §1, §2
as §3, with “The test compounds (1 μL) were dissolved in the first well to give the first row a final volume of 75 μL.” left out
Immediately (within 1 min) the fluorescence was measured using a microplate reader (BIOTEK® Synergy Neo2). […] Data was exported and analyzed using Graph Pad Prism 7. […] The IC50 value was derived after the data was fitted on a 10-point curve using a four-parameter logistic regression model.

[1] = Metabolic stability assay in human liver microsomes (HLM); assay type: in vitro ADME; settings: NADPH, sampled 0-120 min; for half-life at 3 µM: pH 7.4, 3 μM test compound, read-out: HLM t1/2
Protocol: The LC-MS/MS analysis was performed using Agilent 1260 Infinity II HPLC, coupled with an Agilent G6460 triple quadrupole mass spectrometer (Agilent Technologies, USA). All the data were acquired employing Agilent 6460 Quantitative Analysis data processing software.
Reverse-phase HPLC separation for each compound was achieved either on an Agilent Porshell 120 EC-C8 column (2.1×50 mm, 2.7 μm), or on an Agilent Zorbax XDB C18 column (2.1×50 mm, 3.5 μm) with a mobile phase composed of methanol-water-formic acid or acetonitrile-water-formic acid (0.1%) at a flow rate of 0.5 mL/min (changes for some compounds). Each method was developed in the presence of an internal standard (ISTD) d5-7-ethoxy coumarin. The column temperature was maintained at 40° C. for most of the samples otherwise noted. The detection was operated in the Agilent JetStream electrospray positive ionization using multiple reaction monitoring mode (MRM).
Other MS conditions were as follows: dwell time 100 ms; gas flow 10 L/min; nebulizer pressure 45 psi; delta EMV 200 V; fragmentor voltage and collision energy for individual compounds vary.
Test compounds were dissolved in 100% DMSO or 100% MeOH to make 10 mM stock solutions. Verapamil (Sigma Aldrich) aided as a positive control and was dissolved in 100% DMSO to make 10 mM stock solutions. The 10 mM stock solution of test and control compounds were further diluted in potassium phosphate buffer (100 mM, pH 7.4) to 500 μM to ensure the organic solvent content was <0.2%. Human liver microsomes (HLMs) were purchased from Xenotech at 20 mg/mL. NADPH (Sigma Aldrich) 10 mM stocks were prepared in deionized water.
The HLM assay was prepared in a 1.5 mL Eppendorf tube with a final volume of 1100 μL for duplicate runs. Each reaction contained phosphate buffer (928.4 μL), liver microsomes (55 μL), and test compound resulting in a final concentration of 3 μM (6.6 μL of 500 μM). The reaction was initiated with 110 μL of 10 mM NADPH. Aliquots (100 μL) were removed in duplicate at 0, 15, 30, 60, 120 min (for prodrug compounds) and 0, 5, 10, 15, 30 min (verapamil, positive control compound) time intervals and quenched in cold […] of 100% methanol which contained internal standard (ISTD: d5-7-ethoxy coumarin 4 μM). Before centrifugation each of the aliquoted tubes were vortexed to make sure compounds were in the solution. The aliquots were centrifuged at 12,000 g for 5 min and the supernatant removed and placed in an LC-MS vial. Each time point was assessed using LC-MS and the area, based on the extracted ion, was integrated with respect to the ISTD. Positive controls were conducted at a final volume of 550 μL to give each time point in a single run. A no-NADPH negative control with test or control compound was performed in a single run (150 μL) at the longest time point. Controls were processed and analyzed like the test compounds. Each time point was run in duplicates followed by in-between blank washes to avoid the carryover and to equilibrate the column.

[2] = human recombinant CYP2D6, AMMC substrate, read-out: CYP450 IC50 2D6
[3] = human recombinant CYP3A4, BFC substrate, read-out: CYP450 IC50 3A4

CYP2D6, sequence (P10635 whole entry, canonical isoform): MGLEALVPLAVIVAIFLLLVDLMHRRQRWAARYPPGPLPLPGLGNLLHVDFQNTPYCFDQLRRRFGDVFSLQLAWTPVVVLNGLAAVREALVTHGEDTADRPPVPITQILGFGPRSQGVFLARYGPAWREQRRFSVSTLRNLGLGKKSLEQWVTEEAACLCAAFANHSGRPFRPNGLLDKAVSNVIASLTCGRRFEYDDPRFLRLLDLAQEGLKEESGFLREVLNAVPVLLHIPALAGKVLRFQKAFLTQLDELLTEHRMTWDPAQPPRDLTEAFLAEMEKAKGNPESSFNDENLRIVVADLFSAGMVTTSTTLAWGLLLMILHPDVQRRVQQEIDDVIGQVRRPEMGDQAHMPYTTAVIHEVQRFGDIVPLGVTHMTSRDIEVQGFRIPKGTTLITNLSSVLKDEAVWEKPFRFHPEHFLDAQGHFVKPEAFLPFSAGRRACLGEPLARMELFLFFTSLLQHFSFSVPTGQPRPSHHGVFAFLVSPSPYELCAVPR

Row | Compound | half-life at 3 µM [1] [min] | IC50 (CYP2D6; [2]) [µM] | also measured
1 | N.[2H]C([2H])([2H])CCCCCCCCCCCCCCCOP(=O)(O)CO[C@H](C)Cn1cnc2c(N)ncnc21 [EJM-8-036, Ammonium hexadecyl-16,16,16-d3 (R)-(((1-(6-amino-9H-purin-9-yl)propan-2-yl)oxy)methyl)phosphonate] | 21 | – | IC50 (CYP2D6): 20.6 µM; IC50 (CYP3A4): 87.4 µM
2 | C[C@H](Cn1cnc2c(N)ncnc21)OCP(=O)(O)OCCCSCCCCCCCCCCCCC#C[Si](C)(C)C.N [MD-1-187, Ammonium 3-((14-(trimethylsilyl)tetradec-13-yn-1-yl)thio)propyl (R)-(((1-(6-amino-9H-purin-9-yl)propan-2-yl)oxy)methyl)phosphonate] | > 120 | > 20 | IC50 (CYP3A4; [3]): > 20 µM
3 | N.[2H]C([2H])([2H])C([2H])([2H])CCCCCCCCCCCCCOP(=O)(O)CO[C@H](C)Cn1cnc2c(N)ncnc21 [EJM-8-030, Ammonium pentadecyl-14,14,15,15,15-d5 (R)-(((1-(6-amino-9H-purin-9-yl)propan-2-yl)oxy)methyl)phosphonate] | 20 | – | IC50 (CYP2D6): 38.3 µM; IC50 (CYP3A4): 52.2 µM
4 | CCCCCCCCCCSCCCCCCCCCOP(=O)(O)CO[C@H](C)Cn1cnc2c(N)ncnc21.N [MD-1-122, Ammonium 9-(decylthio)nonyl (R)-(((1-(6-amino-9H-purin-9-yl)propan-2-yl)oxy)methyl)phosphonate] | 13 | – | –
5 | CCCCCCCCCCCCCCOCCCCCOP(=O)(O)COC(C)Cn1cnc2c(N)ncnc21.N (racemic) [NP-PD-154, Ammonium [rac-(1R)-2-(6-aminopurin-9-yl)-1-methyl-ethoxy]methyl-(5-tetradecoxypentoxy)phosphinate] | 29 | – | –
6 | COC(=O)CCCCCCCCCCCCCCCSCCCOP(=O)(O)CO[C@H](C)Cn1cnc2c(N)ncnc21.N [MD-1-124, Ammonium 3-((16-methoxy-16-oxohexadecyl)thio)propyl (R)-(((1-(6-amino-9H-purin-9-yl)propan-2-yl)oxy)methyl)phosphonate] | 36 | 19.2 | IC50 (CYP3A4; [3]): 40.8 µM
7 | CCCCCCCCCCCCCCCCCOCCOP(=O)(O)COC(C)Cn1cnc2c(N)ncnc21.N (racemic) [NP-PD-157, Ammonium 2-heptadecoxyethoxy-[[rac-(1R)-2-(6-aminopurin-9-yl)-1-methyl-ethoxy]methyl]phosphinate] | 35 | – | –
8 | CCCCCCCCCCCCCCCCCCSCCCOP(=O)(O)CO[C@H](C)Cn1cnc2c(N)ncnc21 [MD-1-185, Ammonium 3-(octadecylthio)propyl (R)-(((1-(6-amino-9H-purin-9-yl)propan-2-yl)oxy)methyl) phosphonate] | > 120 | – | –
9 | Ammonium 3-((14-trimethylsilyl)tetradec-13-yn-1-yl)propyl(R)-(((1-(6-amino-9H-purin-9-yl)propan-2-yl)oxy)methyl)phosphonate [NP-PD-130] | – | 21.7 | IC50 (CYP3A4; [3]): > 20 µM; HLM t1/2 ([1]; 3 μM test compound): >120 min
10 | C[C@H](Cn1cnc2c(N)ncnc21)OCP(=O)(O)OCCCSCCCCCCCCCCCOc1ccccc1.N [MD-1-223, Ammonium 3-((11-phenoxyundecyl)thio)propyl (R)-(((1-(6-amino-9H-purin-9-yl)propan-2-yl)oxy)methyl)phosphonate] | 15 | > 20 | IC50 (CYP3A4; [3]): > 20 µM
11 | CCCCCCCCCCCCCCCOCCCCOP(=O)(O)COC(C)Cn1cnc2c(N)ncnc21.N (racemic) [NP-PD-150, Ammonium 4-pentadecoxybutoxy-[[rac-(1R)-2-(6-aminopurin-9-yl)-1-methyl-ethoxy]methyl]phosphinate] | 48 | – | –
12 | C#CCCCCCCCCCCCCCCSCCCOP(=O)(O)CO[C@H](C)Cn1cnc2c(N)ncnc21 [MD-1-182, Ammonium 3-(hexadec-15-yn-1-ylthio)propyl (R)-(((1-(6-amino-9H-purin-9-yl)propan-2-yl)oxy)methyl) phosphonate] | 96 | – | –
13 | CCCCCCCCCCCCCSCCCCCCOP(=O)(O)CO[C@H](C)Cn1cnc2c(N)ncnc21 [MD-1-219, Ammonium 6-(tridecylthio)hexyl (R)-(((1-(6-amino-9H-purin-9-yl)propan-2-yl)oxy)methyl) phosphonate] | 66 | – | –
14 | C[C@H](Cn1cnc2c(N)ncnc21)OCP(=O)(O)OCCCSCCCCCCCCCCCCc1ccccc1.N [MD-1-184, Ammonium 3-((12-phenyldodecyl)thio)propyl (R)-(((1-(6-amino-9H-purin-9-yl)propan-2-yl)oxy)methyl)phosphonate] | 69 | > 20 | –
15 | CCCCSCCCCCCCCCCCCCCCOP(=O)(O)CO[C@H](C)Cn1cnc2c(N)ncnc21 [MD-1-221, Ammonium 15-(butylthio)pentadecyl (R)-(((1-(6-amino-9H-purin-9-yl)propan-2-yl)oxy)methyl) phosphonate] | – | > 20 | IC50 (CYP3A4; [3]): > 20 µM
16 | CCCCCCCCCCCCCCCCCCCCSCCCOP(=O)(O)CO[C@H](C)Cn1cnc2c(N)ncnc21.N [MD-1-186, Ammonium 3-(icosylthio)propyl (R)-(((1-(6-amino-9H-purin-9-yl)propan-2-yl)oxy)methyl)phosphonate] | > 120 | – | –
17 | C[C@H](Cn1cnc2c(N)ncnc21)OCP(=O)(O)OCCCSCCCCCCCCCCC#Cc1ccccc1.N [MD-1-183, Ammonium 3-((12-phenyldodec-11-yn-1-yl)thio)propyl (R)-(((1-(6-amino-9H-purin-9-yl)propan-2-yl)oxy)methyl)phosphonate] | 72 | > 20 | –
